In article PMC7831380 (ACS chemical biology, 2020):
No end group written: not given here.

Assay: Overall hydrophobicity from UPLC traces
Format: physicochemical
Details: Supporting Information Figure S1

overall hydrophobicity compared to wild-type kB1	Substance
increased overall hydrophobicity	TRWGLPV (also: bicyclic or more (positions not given here)) [[W^mut, 16]kB1]
increased overall hydrophobicity	TRGFEWLDWEFGLPV (also: bicyclic or more (positions not given here)) [[graft1, 16]kB1]
